From publication PMC12150326 (The Journal of Organic Chemistry, 2025)

Legend:
bovine brain tubulin = assay: Tubulin polymerization inhibition; type: biochemical; settings: 10 μM tubulin
Outline: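 10 μM tubulin incubated 30 min at 37 °C in polymerization-promoting buffer (1 M NaGlutamate, 0.1 M Mes, 1 mM MgCl2, 0.5 mM GTP, pH 6.9) with 3.3 or 33 μM compound. After 100,000g spin for 8 min, polymerization taken as pelletable protein lost from supernatant.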

MDA-MB-468 = type: cell-based, human
Protocol: (§1) (aR)-6, (aS)-6, (aS)-iso -6, and (aR)-iso -6 were submitted to the 60 Cell Screen panel and evaluated at 5 doses (100 μM, 10 μM, 1 μM, 0.1 μM, and 0.01 μM). […] The complete report from this submission is available at the publisher’s Web site as a separate Supporting Information file. For COMPARE analysis, TGI levels of response for (aR)-DM-MTC (6) and (aS)-iso-DM-MTC were compared to those of several established tubulin inhibitors previously tested in the NCI-60 screen.

HT29 = type: cell-based, human
Protocol: as §1

NCI-H226 = type: cell-based, human
Protocol: as §1

SF-539 = type: cell-based, human
Protocol: as §1

SK-OV-3 = type: cell-based, human
Protocol: as §1

HCT-116 = type: cell-based, human
Protocol: as §1

RXF 393 = type: cell-based, human
Protocol: as §1

NCI 60 cell lines = type: cell-based, human
Protocol: as §1

HCT-15 = type: cell-based, human
Protocol: as §1

MCF7 = type: cell-based, human
Protocol: as §1

M14 = type: cell-based, human
Protocol: as §1

NCI-H23 = type: cell-based, human
Protocol: as §1

UACC-257 = type: cell-based, human
Protocol: as §1

SK-MEL-28 = type: cell-based, human
Protocol: as §1

ACHN = type: cell-based, human
Protocol: as §1

A498 = type: cell-based, human
Protocol: as §1

SF-295 = type: cell-based, human
Protocol: as §1

U251 = type: cell-based, human
Protocol: as §1

BT-549 = type: cell-based, human
Protocol: as §1

CAKI-1 = type: cell-based, human
Protocol: as §1

OVCAR-5 = type: cell-based, human
Protocol: as §1

UO-31 = type: cell-based, human
Protocol: as §1

[1] = target: colchicine site of bovine brain tubulin; type: binding; settings: tubulin binding constant, 25 °C; read-out: Kd
Protocol: Inhibition of this fluorescence increase was measured and converted to K d for the test compound as described.

Q: How did the “Polymerization Inhibition (%) 3.3 μM” value (bovine brain tubulin; 3.3 μM compound) turn out when `COc1cc(C)c(-c2ccc(OC)c(=O)cc2C)c(OC)c1OC` (single isomer, unassigned) [(aS)-6] was run?
A: 0%

Q: What about the “Polymerization Inhibition (%) 33 μM” value (bovine brain tubulin; 33 μM compound) of the same compound?
A: 0%

Q: What about the Log10GI50 (MDA-MB-468) of the same compound?
A: -4.20 Molar

Q: And the Log10LC50 (MDA-MB-468)?
A: > -4.00 Molar

Q: And the Log10TGI (MDA-MB-468)?
A: > -4.00 Molar

Q: And the Log10GI50 (HT29)?
A: > -4.00 Molar

Q: What about the Log10LC50 (HT29) of the same compound?
A: > -4.00 Molar

Q: What about the Log10TGI (HT29) of the same compound?
A: > -4.00 Molar

Q: What about the Log10GI50 (NCI-H226) of the same compound?
A: > -4.00 Molar

Q: And the Log10LC50 (NCI-H226)?
A: > -4.00 Molar

Q: And the Log10TGI (NCI-H226)?
A: > -4.00 Molar

Q: What about the Log10GI50 (SF-539) of the same compound?
A: > -4.00 Molar

Q: What about the Log10LC50 (SF-539) of the same compound?
A: > -4.00 Molar

Q: What about the Log10TGI (SF-539) of the same compound?
A: > -4.00 Molar

Q: And the Log10GI50 (SK-OV-3)?
A: > -4.00 Molar

Q: What about the Log10LC50 (SK-OV-3) of the same compound?
A: > -4.00 Molar

Q: What about the Log10TGI (SK-OV-3) of the same compound?
A: > -4.00 Molar

Q: And the Log10GI50 (HCT-116)?
A: > -4.00 Molar

Q: And the Log10LC50 (HCT-116)?
A: > -4.00 Molar

Q: And the Log10TGI (HCT-116)?
A: > -4.00 Molar

Q: What about the Log10GI50 (RXF 393) of the same compound?
A: > -4.00 Molar

Q: What about the Log10LC50 (RXF 393) of the same compound?
A: > -4.00 Molar

Q: What about the Log10TGI (RXF 393) of the same compound?
A: > -4.00 Molar

Q: What about the “cytotoxicity at the highest concentration tested” value (NCI 60 cell lines; 100 μM) of the same compound?
A: not cytotoxic

Q: What about the “Log10 Range at TGI” value (NCI 60 cell lines; NCI-60 cell line selectivity, listed as (aS)-DM-MTC (6)) of the same compound?
A: 0

Q: And the “Mean TGI” value (NCI 60 cell lines; NCI-60 mean total growth inhibition, listed as (aS)-DM-MTC (6))?
A: > 100 µM

Q: And the GI50 (NCI 60 cell lines; NCI-60 mean, listed as (aS)-DM-MTC (6))?
A: > 100 µM

Q: What about the “Delta Log10GI50” value (NCI 60 cell lines; mean graph) of the same compound?
A: 0.63

Q: What about the “Delta Log10LC50” value (NCI 60 cell lines; mean graph) of the same compound?
A: 0

Q: What about the “Delta Log10TGI” value (NCI 60 cell lines; mean graph) of the same compound?
A: 0

Q: What about the “Range Log10GI50” value (NCI 60 cell lines; mean graph) of the same compound?
A: 0.65

Q: What about the “Range Log10LC50” value (NCI 60 cell lines; mean graph) of the same compound?
A: 0.0

Q: And the “Range Log10TGI” value (NCI 60 cell lines; mean graph)?
A: 0.0

Q: And the “_MID Log10GI50” value (NCI 60 cell lines; mean graph midpoint)?
A: -4.02 Molar

Q: What about the “_MID Log10LC50” value (NCI 60 cell lines; mean graph midpoint) of the same compound?
A: -4.0 Molar

Q: What about the “_MID Log10TGI” value (NCI 60 cell lines; mean graph midpoint) of the same compound?
A: -4.0 Molar

Q: What about the Log10GI50 (HCT-15) of the same compound?
A: > -4.00 Molar

Q: What about the Log10LC50 (HCT-15) of the same compound?
A: > -4.00 Molar

Q: And the Log10TGI (HCT-15)?
A: > -4.00 Molar

Q: And the Log10GI50 (MCF7)?
A: > -4.00 Molar

Q: What about the Log10LC50 (MCF7) of the same compound?
A: > -4.00 Molar

Q: What about the Log10TGI (MCF7) of the same compound?
A: > -4.00 Molar

Q: What about the Log10GI50 (M14) of the same compound?
A: > -4.00 Molar

Q: What about the Log10LC50 (M14) of the same compound?
A: > -4.00 Molar

Q: What about the Log10TGI (M14) of the same compound?
A: > -4.00 Molar

Q: And the Log10GI50 (NCI-H23)?
A: > -4.00 Molar

Q: And the Log10LC50 (NCI-H23)?
A: > -4.00 Molar

Q: And the Log10TGI (NCI-H23)?
A: > -4.00 Molar

Q: And the Log10GI50 (UACC-257)?
A: > -4.00 Molar

Q: And the Log10LC50 (UACC-257)?
A: > -4.00 Molar

Q: What about the Log10TGI (UACC-257) of the same compound?
A: > -4.00 Molar

Q: And the Log10GI50 (SK-MEL-28)?
A: > -4.00 Molar

Q: And the Log10LC50 (SK-MEL-28)?
A: > -4.00 Molar

Q: What about the Log10TGI (SK-MEL-28) of the same compound?
A: > -4.00 Molar

Q: And the Log10GI50 (ACHN)?
A: > -4.00 Molar

Q: And the Log10LC50 (ACHN)?
A: > -4.00 Molar

Q: What about the Log10TGI (ACHN) of the same compound?
A: > -4.00 Molar

Q: What about the Log10GI50 (A498) of the same compound?
A: > -4.00 Molar

Q: And the Log10LC50 (A498)?
A: > -4.00 Molar

Q: And the Log10TGI (A498)?
A: > -4.00 Molar

Q: And the Log10GI50 (SF-295)?
A: > -4.00 Molar

Q: What about the Log10LC50 (SF-295) of the same compound?
A: > -4.00 Molar

Q: What about the Log10TGI (SF-295) of the same compound?
A: > -4.00 Molar

Q: What about the Log10GI50 (U251) of the same compound?
A: > -4.00 Molar

Q: And the Log10LC50 (U251)?
A: > -4.00 Molar

Q: And the Log10TGI (U251)?
A: > -4.00 Molar

Q: And the Log10GI50 (BT-549)?
A: > -4.00 Molar

Q: What about the Log10LC50 (BT-549) of the same compound?
A: > -4.00 Molar

Q: And the Log10TGI (BT-549)?
A: > -4.00 Molar

Q: And the Log10GI50 (CAKI-1)?
A: > -4.00 Molar

Q: And the Log10LC50 (CAKI-1)?
A: > -4.00 Molar

Q: What about the Log10TGI (CAKI-1) of the same compound?
A: > -4.00 Molar

Q: What about the Log10GI50 (OVCAR-5) of the same compound?
A: > -4.00 Molar

Q: What about the Log10LC50 (OVCAR-5) of the same compound?
A: > -4.00 Molar

Q: And the Log10TGI (OVCAR-5)?
A: > -4.00 Molar

Q: What about the Log10GI50 (UO-31) of the same compound?
A: > -4.00 Molar

Q: And the Log10LC50 (UO-31)?
A: > -4.00 Molar

Q: What about the Log10TGI (UO-31) of the same compound?
A: > -4.00 Molar

Q: And the Kd [1]?
A: 230 µM
